Source: patent publication US9738634B2, “Heterocyclic amide compound and herbicide” (SYNGENTA PARTICIPATIONS AG, priority 2013, dated 2017)

Columns and labels:
Type in all cases: in vivo
Conditions in all cases: treatment dosage 320 g/ha
beet [1] = test: Test Example 4: foliar treatment, effect on crop; f: beet
Method in brief: (§1)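 Seeds are spot-sown into sterilized diluvial soil and covered with about 1.5 cm of soil. After 14 days' greenhouse growth at 25 to 30° C, plants are sprayed on stems and leaves with diluted emulsion at the stated g/ha rate, then scored at 3 weeks.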

beet [2] = test: Test Example 3: soil treatment, effect on crop; f: beet
Method in brief: (§2)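 Crop and weed responses were judged three weeks after a uniform surface spray of the water-diluted emulsion at the given g/ha rate. Seeds sat beneath about 1.5 cm of sterilized diluvial soil, and boxes stood in a greenhouse at 25 to 30° C.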

wild oat [3] = test: Test Example 3: weedkilling efficacy through soil treatment; G: wild oat
Method in brief: as §2

barnyard grass [4] = test: Test Example 1: weedkilling efficacy, preemergent weed treatment in the submerged state; A: barnyard grass
Method in brief: (§3)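 Emulsion diluted with water to the specified per-hectare dosage is applied onto flood water (4 cm) over alluvial soil on the sowing day, with barnyard grass, bulrush and pondweed seeded and rice (2.5-leaf) transplanted; plants grow at 25–30 °C and are rated at 3 weeks.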

black-grass [5] = test: Test Example 4: weedkilling efficacy by foliar treatment; H: black-grass
Method in brief: as §1

rapeseed [6] = test: Test Example 3: soil treatment, effect on crop; g: rapeseed
Method in brief: as §2

redroot pigweed [7] = test: Test Example 4: weedkilling efficacy by foliar treatment; L: redroot pigweed
Method in brief: as §1

birds-eye speedwell [8] = test: Test Example 3: weedkilling efficacy through soil treatment; p: birds-eye speedwell
Method in brief: as §2

redroot pigweed [9] = test: Test Example 3: weedkilling efficacy through soil treatment; L: redroot pigweed
Method in brief: as §2

common wind-grass [10] = test: Test Example 4: weedkilling efficacy by foliar treatment; J: common wind-grass
Method in brief: as §1

corn [11] = test: Test Example 4: foliar treatment, effect on crop; c: corn
Method in brief: as §1

directly sown rice [12] = test: Test Example 3: soil treatment, effect on crop; b: directly sown rice
Method in brief: as §2

wild oat [13] = test: Test Example 4: weedkilling efficacy by foliar treatment; G: wild oat
Method in brief: as §1

crabgrass [14] = test: Test Example 3: weedkilling efficacy through soil treatment; D: crabgrass
Method in brief: as §2

barnyard grass [15] = test: Test Example 3: weedkilling efficacy through soil treatment; F: barnyard grass
Method in brief: as §2

oval-leafed pondweed [16] = test: Test Example 2: weedkilling efficacy, growth period weed treatment in the submerged state; C: oval-leafed pondweed
Method in brief: (§4)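 First, alluvial soil in pots is flooded to 4 cm and mixed seed is sown. Next, plants grow in a greenhouse at 25 to 30° C until the 1-2 leaf stage. Then diluted emulsion is applied onto the water surface at the given g/ha rate, and injury is assessed after 3 weeks.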

black-grass [17] = test: Test Example 3: weedkilling efficacy through soil treatment; H: black-grass
Method in brief: as §2

Italian ryegrass [18] = test: Test Example 3: weedkilling efficacy through soil treatment; I: Italian ryegrass
Method in brief: as §2

catchweed = test: Test Example 4: weedkilling efficacy by foliar treatment; O: catchweed
Method in brief: as §1

wheat [19] = test: Test Example 4: foliar treatment, effect on crop; e: wheat
Method in brief: as §1

corn [20] = test: Test Example 3: soil treatment, effect on crop; c: corn
Method in brief: as §2

bulrush [21] = test: Test Example 1: weedkilling efficacy, preemergent weed treatment in the submerged state; B: bulrush
Method in brief: as §3

directly sown rice [22] = test: Test Example 4: foliar treatment, effect on crop; b: directly sown rice
Method in brief: as §1

soybean [23] = test: Test Example 4: foliar treatment, effect on crop; d: soybean
Method in brief: as §1

birds-eye speedwell [24] = test: Test Example 4: weedkilling efficacy by foliar treatment; p: birds-eye speedwell
Method in brief: as §1

fig-leafed goosefoot [25] = test: Test Example 4: weedkilling efficacy by foliar treatment; M: fig-leafed goosefoot
Method in brief: as §1

rapeseed [26] = test: Test Example 4: foliar treatment, effect on crop; g: rapeseed
Method in brief: as §1

chickweed [27] = test: Test Example 3: weedkilling efficacy through soil treatment; N: chickweed
Method in brief: as §2

green foxtail [28] = test: Test Example 4: weedkilling efficacy by foliar treatment; E: green foxtail
Method in brief: as §1

soybean [29] = test: Test Example 3: soil treatment, effect on crop; d: soybean
Method in brief: as §2

bulrush [30] = test: Test Example 2: weedkilling efficacy, growth period weed treatment in the submerged state; B: bulrush
Method in brief: as §4

Italian ryegrass [31] = test: Test Example 4: weedkilling efficacy by foliar treatment; I: Italian ryegrass
Method in brief: as §1

Indian mallow [32] = test: Test Example 4: weedkilling efficacy by foliar treatment; K: Indian mallow
Method in brief: as §1

Indian mallow [33] = test: Test Example 3: weedkilling efficacy through soil treatment; K: Indian mallow
Method in brief: as §2

transplanted rice = test: Test Example 1: preemergent weed treatment in the submerged state, effect on crop; a: transplanted rice
Method in brief: as §3

oval-leafed pondweed [34] = test: Test Example 1: weedkilling efficacy, preemergent weed treatment in the submerged state; C: oval-leafed pondweed
Method in brief: as §3

barnyard grass [35] = test: Test Example 2: weedkilling efficacy, growth period weed treatment in the submerged state; A: barnyard grass
Method in brief: as §4

green foxtail [36] = test: Test Example 3: weedkilling efficacy through soil treatment; E: green foxtail
Method in brief: as §2

wheat [37] = test: Test Example 3: soil treatment, effect on crop; e: wheat
Method in brief: as §2

chickweed [38] = test: Test Example 4: weedkilling efficacy by foliar treatment; N: chickweed
Method in brief: as §1

fig-leafed goosefoot [39] = test: Test Example 3: weedkilling efficacy through soil treatment; M: fig-leafed goosefoot
Method in brief: as §2

common wind-grass [40] = test: Test Example 3: weedkilling efficacy through soil treatment; J: common wind-grass
Method in brief: as §2

barnyard grass [41] = test: Test Example 4: weedkilling efficacy by foliar treatment; F: barnyard grass
Method in brief: as §1

crabgrass [42] = test: Test Example 4: weedkilling efficacy by foliar treatment; D: crabgrass
Method in brief: as §1

Structure (SMILES): CC1=C(c2ccccc2)C(=O)N(C(C)(C)C(=O)Nc2cc(Cl)cc(C)n2)CO1 [B-2-42]
- f (beet) effect on crop grade (beet [1]): 4 (weed kill ratio 70% or more, less than 90%)
- f (beet) effect on crop grade (beet [2]): 4 (weed kill ratio 70% or more, less than 90%)
- G (wild oat) weedkilling efficacy grade (wild oat [3]): 5 (weed kill ratio 90% or more, (practically complete withering))
- A (barnyard grass) weedkilling efficacy grade (barnyard grass [4]): 5 (weed kill ratio 90% or more, (practically complete withering))
- H (black-grass) weedkilling efficacy grade (black-grass [5]): 5 (weed kill ratio 90% or more, (practically complete withering))
- g (rapeseed) effect on crop grade (rapeseed [6]): 4 (weed kill ratio 70% or more, less than 90%)
- L (redroot pigweed) weedkilling efficacy grade (redroot pigweed [7]): 4 (weed kill ratio 70% or more, less than 90%)
- P (birds-eye speedwell) weedkilling efficacy grade (birds-eye speedwell [8]): 5 (weed kill ratio 90% or more, (practically complete withering))
- L (redroot pigweed) weedkilling efficacy grade (redroot pigweed [9]): 3 (weed kill ratio 40% or more, less than 70%)
- J (common wind-grass) weedkilling efficacy grade (common wind-grass [10]): 5 (weed kill ratio 90% or more, (practically complete withering))
- c (corn) effect on crop grade (corn [11]): 3 (weed kill ratio 40% or more, less than 70%)
- b (directly sown rice) effect on crop grade (directly sown rice [12]): 4 (weed kill ratio 70% or more, less than 90%)
- G (wild oat) weedkilling efficacy grade (wild oat [13]): 3 (weed kill ratio 40% or more, less than 70%)
- D (crabgrass) weedkilling efficacy grade (crabgrass [14]): 5 (weed kill ratio 90% or more, (practically complete withering))
- F (barnyard grass) weedkilling efficacy grade (barnyard grass [15]): 5 (weed kill ratio 90% or more, (practically complete withering))
- C (oval-leafed pondweed) weedkilling efficacy grade (oval-leafed pondweed [16]): 5 (weed kill ratio 90% or more, (practically complete withering))
- H (black-grass) weedkilling efficacy grade (black-grass [17]): 5 (weed kill ratio 90% or more, (practically complete withering))
- I (Italian ryegrass) weedkilling efficacy grade (Italian ryegrass [18]): 5 (weed kill ratio 90% or more, (practically complete withering))
- O (catchweed) weedkilling efficacy grade (catchweed): 5 (weed kill ratio 90% or more, (practically complete withering))
- e (wheat) effect on crop grade (wheat [19]): 0 (weed kill ratio 5% or less (practically no effect))
- c (corn) effect on crop grade (corn [20]): 1 (weed kill ratio 5% or more, less than 20%)
- B (bulrush) weedkilling efficacy grade (bulrush [21]): 5 (weed kill ratio 90% or more, (practically complete withering))
- b (directly sown rice) effect on crop grade (directly sown rice [22]): 4 (weed kill ratio 70% or more, less than 90%)
- d (soybean) effect on crop grade (soybean [23]): 4 (weed kill ratio 70% or more, less than 90%)
- P (birds-eye speedwell) weedkilling efficacy grade (birds-eye speedwell [24]): 4 (weed kill ratio 70% or more, less than 90%)
- M (fig-leafed goosefoot) weedkilling efficacy grade (fig-leafed goosefoot [25]): 4 (weed kill ratio 70% or more, less than 90%)
- g (rapeseed) effect on crop grade (rapeseed [26]): 4 (weed kill ratio 70% or more, less than 90%)
- N (chickweed) weedkilling efficacy grade (chickweed [27]): 4 (weed kill ratio 70% or more, less than 90%)
- E (green foxtail) weedkilling efficacy grade (green foxtail [28]): 5 (weed kill ratio 90% or more, (practically complete withering))
- d (soybean) effect on crop grade (soybean [29]): 0 (weed kill ratio 5% or less (practically no effect))
- B (bulrush) weedkilling efficacy grade (bulrush [30]): 5 (weed kill ratio 90% or more, (practically complete withering))
- I (Italian ryegrass) weedkilling efficacy grade (Italian ryegrass [31]): 5 (weed kill ratio 90% or more, (practically complete withering))
- K (Indian mallow) weedkilling efficacy grade (Indian mallow [32]): 5 (weed kill ratio 90% or more, (practically complete withering))
- K (Indian mallow) weedkilling efficacy grade (Indian mallow [33]): 4 (weed kill ratio 70% or more, less than 90%)
- a (transplanted rice) effect on crop grade (transplanted rice): 4 (weed kill ratio 70% or more, less than 90%)
- C (oval-leafed pondweed) weedkilling efficacy grade (oval-leafed pondweed [34]): 5 (weed kill ratio 90% or more, (practically complete withering))
- A (barnyard grass) weedkilling efficacy grade (barnyard grass [35]): 5 (weed kill ratio 90% or more, (practically complete withering))
- E (green foxtail) weedkilling efficacy grade (green foxtail [36]): 5 (weed kill ratio 90% or more, (practically complete withering))
- e (wheat) effect on crop grade (wheat [37]): 0 (weed kill ratio 5% or less (practically no effect))
- N (chickweed) weedkilling efficacy grade (chickweed [38]): 4 (weed kill ratio 70% or more, less than 90%)
- M (fig-leafed goosefoot) weedkilling efficacy grade (fig-leafed goosefoot [39]): 4 (weed kill ratio 70% or more, less than 90%)
- J (common wind-grass) weedkilling efficacy grade (common wind-grass [40]): 5 (weed kill ratio 90% or more, (practically complete withering))
- F (barnyard grass) weedkilling efficacy grade (barnyard grass [41]): 5 (weed kill ratio 90% or more, (practically complete withering))
- D (crabgrass) weedkilling efficacy grade (crabgrass [42]): 5 (weed kill ratio 90% or more, (practically complete withering))
